One series in a line: in vivo. The following applies: male, Wister, rat, po, 215 nmol/10 mL.
The subject of series [1] is osteoclasts (primary mouse bone marrow cell culture). Nature of the series: Evaluation Test 1-1: osteoclast differentiation culture on plastic Petri dish (TRAP). The settings on record: 625 μM end concentration, after 6 days culture, control (blank) = 100, n = 6. In kind it is cell-based. The protocol: The evaluation was carried out in accordance with Kobayashi Y. et al.'s osteoclast differentiation culture method [J. Bone Miner. Metab. (2004) 22: p. 318-328].
That is to say, the Hyp-Gly and a 1:1 mixture of the Hyp-Gly and the Pro-Hyp were used, and each of them was added to a primary mouse bone marrow cell culture liquid so as to be 625 μM in end concentration. After 6 days from the culture, each inhibition activity of tartaric acid resistant acid phosphatase (TRAP) being a marker enzyme was examined. In the same way, the TRAP inhibition activity when using the other dipeptides (Pro-Hyp, Ala-Hyp, Leu-Hyp, Phe-Hyp, Ser-Hyp), the tripeptide (Pro-Hyp-Gly) and the amino acids (Pro, Hyp) was examined. Furthermore, as a control, the TRAP inhibition activity when adding no peptide (blank) was also examined.

The next series relates to osteoclasts. Nature of the series: Evaluation Test 1-1: Pit assay, osteoclasts cultured on dentin slices. In kind it is cell-based, mouse. The settings on record: control (blank) = 100, n = 6; for Relative number (%) of TRAP positive multinucleate giant cells (osteoclasts) in culture on dentin slices: culture about 1 week on dentin slices; for Relative number (%) of Pit: number of absorption pits on dentin slices, culture about 1 week. The protocol:
In addition, the degree of inhibition of differentiation and activation of osteoclasts by the various peptides and amino acids was evaluated by the following Pit assay. That is to say, the Pit assay where osteoclasts were cultured on […] was carried out in accordance with Kakudo S, et al. (1996). J. Bone Miner. Metab. 14: 129-136, specifically, as follows.
Precursory cells of osteoclasts derived from young mouse […] were freeze-preserved at −80° C. together with a bone marrow stroma cells-containing suspension in the presence of 10% DMSO, thereby making matured osteoclasts extinct.
These cells of 2.0×10^5 in number were seeded into each well of a 96-well plate where dentin slices were set, and each peptide to be tested was added to the culture liquid, and culture was carried out at 37° C. in 5% CO2 for about 1 week. Thereafter, cells were removed from the dentin slices by a silicon-made rubber POLICEMAN, and then the dentin slices were dyed with an […] for several minutes. Hereupon, the number of TRAP dyeing positive multinucleate giant cells (osteoclasts) was counted by the TRAP dyeing, and the number relative to the number of cells in the control (blank) was calculated. Thereafter, the Pit number (number of absorption pits) by osteoclasts was counted under a microscope, and the degree of inhibition of activity of osteoclasts by each peptide to be tested was indicated by the ratio relative to the blank (control).

The test system of series [2] is osteoblast stock MC3T3-E1. Nature of the series: Evaluation Test 1-2: promotion of differentiation and activation of osteoblasts (ALP). Format: cell-based. The following applies: MC3T3-E1, 2.5 mmol/L end concentration, after 10 days culture, control (blank) = 100. The protocol: Each of dexamethasone (end concentration: 1 nmol/L), β-glycerophosphoric acid (end concentration: 5 mmol/L), and ascorbic acid (end concentration: 100 μg/mL) was added to an osteoblast stock MC3T3-E1 culture liquid, and then the Hyp-Gly and a 1:1 mixture of the Hyp-Gly and the Pro-Hyp were used, and each of them was added to the aforementioned culture liquid so as to be 2.5 mmol/L in end concentration. After 10 days from the culture, each promotion activity of alkaline phosphatase (ALP) being a marker enzyme for differentiation and calcification of osteoblasts was examined. In the same way, the ALP promotion activity when using the other dipeptides (Pro-Hyp, Ala-Hyp, Leu-Hyp, Phe-Hyp, Ser-Hyp), the tripeptide (Pro-Hyp-Gly) and the amino acids (Pro, Hyp) was examined. Furthermore, as a control, the ALP promotion activity when adding no peptide (blank) was also examined.

For series [3], the system named is precursory cartilage cell stock ATDC5. Nature of the series: Evaluation Test 1-3: inhibition of degeneration of cartilage cells (ALP). In kind it is cell-based. The following applies: ATDC5, 2.5 mmol/L end concentration, after 5 days culture, control (blank) = 100. The method, then: The Hyp-Gly, a 1:1 mixture of the Hyp-Gly and the Pro-Hyp and a 1:1:1 mixture of the Hyp-Gly, the Pro-Hyp and the Ala-Hyp were used, and each dipeptide was added to a precursory cartilage cell stock ATDC5 culture liquid so as to be 2.5 mmol/L in end concentration. After 5 days from the culture, each inhibition activity of alkaline phosphatase (ALP) being a marker enzyme for hypertrophied cartilages and calcification was examined. In the same way, the ALP activity when using the other dipeptides (Pro-Hyp, Ala-Hyp, Leu-Hyp, Phe-Hyp, Ser-Hyp), the tripeptide (Pro-Hyp-Gly) and the amino acids (Pro, Hyp) was examined. Furthermore, as a control, the ALP activity when adding no peptide (blank) was also examined.

Series [4] shares this test system. Nature of the series: Evaluation Test 2-2: ALP inhibition activity of Pro-Hyp and comparisons. Format: cell-based. The following applies: ATDC5, 2.5 mM, after 5 days culture, N group = 1.0. The method, then: The aforementioned PC (PC group), FC (FC group) and PC-CA (PC-CA group) were used, and each collagen peptide was added to a precursory cartilage cell stock ATDC5 culture liquid so as to be 0.1% in end concentration. After 5 days from the culture, each inhibition activity of alkaline phosphatase (ALP) being a marker enzyme for hypertrophied cartilages and calcification was examined. For comparison, the ALP inhibition activity when adding no peptide (N group), the ALP inhibition activity when using peptone (Pe group) of 0.1% in end concentration, and the ALP inhibition activity when using the aforementioned PC-Cont (PC-Cont group) and PC-CA-Cont (PC-CA-Cont group) were also examined.
The ALP inhibition activity was examined in the same way as of evaluation test 2-1 except that: a dipeptide Pro-Hyp as synthesized by a solid-phase method (produced by PH Japan) ([Pro-Hyp] group) was used, the amount of its addition was changed to 2.5 mM and, for comparison, no peptide was added (N group) or glycine being a free amino acid (Gly group), proline being a free amino acid (Pro group), hydroxyproline being a free amino acid (Hyp group), a free amino acid mixture of proline and hydroxyproline ([Pro+Hyp] group), a free amino acid mixture of glycine, proline and hydroxyproline ([Gly+Pro+Hyp] group), and a tripeptide Pro-Hyp-Gly as synthesized by a solid-phase method (produced by PH Japan) ([Pro-Hyp-Gly] group) were used.

The conditions of series [5]: rat, in vivo.
Procedure: (§1) Wister strain male rats (170 g) were caused to go on a fast of one night and then subjected to experiments.
(§2) As a test method, a cannula was equipped to a heart and portal vein of each rat, and one-directional perfusion was carried out. The perfusion liquid being used was prepared in a way that to a Krebs-Ringer bicarbonate solution (KRB solution, pH 7.4) comprising 9.0 g of NaCl, 8 mL of 5.75% KCl, 2 mL of 10.55% KH2PO4, 2 mL of 19% MgSO4, 2.73 g of NaHCO3, 3.43 g of glucose and 1255 mL of water, there was added 10 g of bovine serum albumin, 0.5 mL of dexamethasone (0.123 mg/mL) and 0.5 mL of noradrenaline (0.024 mg/mL) relative to 500 mL of the aforementioned KRB solution.
(§3) An amount of 0.5 mL of 30% sulfosalicylic acid was added to 5.0 mL of perfusion sample liquid taken from portal vein, and the resultant mixture was vigorously stirred and then left in a refrigerator for one night. This sample was centrifuged at 3000 rpm for 10 minutes to remove protein.
(§4) Furthermore, 3.0 mL of the aforementioned centrifugal supernatant was weighed out and placed into a screw opening test tube, and thereto an equivalent of concentrated hydrochloric acid was added to carry out hydrolysis at 110° C. for 24 hours. Concentration to dryness was carried out with an evaporator to remove hydrochloric acid, and then the residue was dissolved into 5 mL of distilled water, and thereto several drops of saturated lithium hydroxide solution were added to adjust pH to the range of 5 to 7, and the volume was adjusted to 10 mL. […] A value obtained by subtracting the free type Hyp amount before hydrolysis from the total Hyp amount after hydrolysis is a peptide-form Hyp amount.
(§5) Analysis of the dipeptides in the perfusion liquid was carried out by reversed-phase HPLC analysis. As HPLC apparatus, LCSS-905 system produced by JASCO Corporation comprising a liquid-feeding pump, a decassa, an autosamplor, a column oven, ultraviolet spectrophotometer, a printer and a system controller was used. As the reversed-phase column, Nova Pak C18 (3.9×150 mm) was used.
(§6) A linear-gradient moving bed of a 0.1% TFA-containing acetonitrile-water system was used, the injection amount of the sample was 70 μL, and the flow rate was 1 mL/min.
(§7) As HPLC apparatus, U980HPLC (produced by JASCO Corporation) was used. This apparatus was equipped with an ODS (C18) column (Mightysil RP-18, 2×250 mm, produced by Kanto Chemical Co Ltd). The moving bed solvent was a 0.2% formic acid-containing acetonitrile-water system, and the concentration was raised from 0% to 40% acetonitrile by linear gradient in 40 minutes, and washing was carried out with 100% acetonitrile for 10 minutes. The injection amount of the sample was 10 μL, and the column temperature was 40° C.
(§8) The MS analysis was carried out in accordance with an MS/MS system with a Quattro LC mass spectrophotometer (Micromass, Manchester, UK) by a Multiple Reaction Monitoring method of 4 channels. That is to say, an eluate from the HPLC was monitored by m/z being [M+H]^+ and m/s of its fragment ion species.

Square brackets hold non-standard residues; d marks the D form. Ends that are not written are not given here. Peptide text beside a SMILES is read from it. Hyp = O=C(O)[C@@H]1C[C@@H](O)CN1

Procedure for in vivo: as §1, §2, §3, §4, §5, §6, §7, §8

In turn, `N[C@@H](CO)C(=O)N1C[C@H](O)C[C@H]1C(=O)O` [Comparative Example 3, Ser-Hyp] (H-Ser-[Hyp]-OH; N-terminus and C-terminus assumed) returned a level at time molar in the series “in vivo” of 0.7 µM.

With `O=C(O)[C@@H]1CCCN1` [Comparative Example 5, Proline], in series [1], the “Relative area (%) of TRAP positive multinucleate giant cells (osteoclasts) in culture on plastic Petri dish” value (“Relative area (%)” for short) came out at 125 ± 69% and the “Relative number (%) of TRAP positive multinucleate giant cells (osteoclasts) in culture on plastic Petri dish” value (“Relative number (%) … on plastic Petri dish” below) stood at 119 ± 44%. In addition, in the series with osteoclasts, the “Relative number (%) of TRAP positive multinucleate giant cells (osteoclasts) in culture on dentin slices” value (“Relative number (%) … on dentin slices” for short) came out at 119 ± 20% and the “Relative number (%) of Pit” value is listed as 121 ± 23%. Besides, the “Relative value (%) of ALP” value in series [2] came out at 97 ± 15%. In addition, the “Relative value (%) of ALP” value in series [3] came out at 98 ± 10%. Besides, the “Relative ALP activity” value in series [4] is 0.98 ± 0.1.

As for `O=C(O)[C@@H]1C[C@@H](O)CN1` [Comparative Example 6, hydroxyproline], in series [1], the “Relative area (%)” value stood at 117 ± 13 % and the “Relative number (%) … on plastic Petri dish” value is 126 ± 4 %. Further, in the series with osteoclasts, the “Relative number (%) … on dentin slices” value worked out at 141 ± 9 % and the “Relative number (%) of Pit” value was determined as 131 ± 11 %. In addition, in series [2], the “Relative value (%) of ALP” value worked out at 103 ± 25%. The “Relative value (%) of ALP” value in series [3] came out at 101 ± 1%. For the same compound, the “Relative ALP activity” value in series [4] came out at 1.0 ± 0.01.

On to `O=C(O)CNC(=O)[C@@H]1C[C@@H](O)CN1` [Example 1, Hyp-Gly] (H-[Hyp]-Gly-OH; N-terminus and C-terminus assumed), for which the “Intestine absorption, in words” value in series [5] was “absorbed into intestine extremely rapidly and stably (without being decomposed into amino acids)”. Further, the level at time molar in the series “in vivo” was found to be 9.8 µM.

In the case of `NCC(=O)O` [Gly, glycine], in series [4], the “Relative ALP activity” value came out at 1.1 ± 0.01.

As to `O=C(O)[C@@H]1C[C@@H](O)CN1C(=O)[C@@H]1CCCN1` [Referential Example 1-1, Pro-Hyp] (H-Pro-[Hyp]-OH; N-terminus and C-terminus assumed), the “Intestine absorption, in words” value in series [5] is “absorbed into intestine extremely rapidly and stably (without being decomposed into amino acids)”. This compound registered a level at time molar in “in vivo” of 21.3 µM.

The compound `C[C@H](N)C(=O)N1C[C@H](O)C[C@H]1C(=O)O` [Referential Example 1-2, Ala-Hyp] (H-Ala-[Hyp]-OH; N-terminus and C-terminus assumed) had a level at time molar in “in vivo” of 1.2 µM.

On to Leu-Hyp [Comparative Example 1], for which, in series [1], the “Relative area (%)” value is given as 83 ± 27% and the “Relative number (%) … on plastic Petri dish” value was 88 ± 22%. Further, in the series on osteoclasts, the “Relative number (%) … on dentin slices” value was 101 ± 12% and the “Relative number (%) of Pit” value came to 91 ± 11%. Besides, the “Relative value (%) of ALP” value in series [2] is listed as 92 ± 12%. Also, in series [3], the “Relative value (%) of ALP” value was found to be 93 ± 12%.

For the compound Phe-Hyp [Comparative Example 2], in series [1], the “Relative area (%)” value is reported as 118 ± 21% and the “Relative number (%) … on plastic Petri dish” value amounted to 119 ± 16%. For the same compound, in the series with osteoclasts, the “Relative number (%) … on dentin slices” value came out at 98 ± 11% and the “Relative number (%) of Pit” value is reported as 109 ± 15%. In series [2], the “Relative value (%) of ALP” value is recorded as 109 ± 11%. Also, the “Relative value (%) of ALP” value in series [3] is 109 ± 11%.

For the compound Pro-[Hyp]-Gly [Comparative Example 4], in series [1], the “Relative area (%)” value is on record as 113 ± 11% and the “Relative number (%) … on plastic Petri dish” value is on record as 109 ± 15%. In the series with osteoclasts, the “Relative number (%) … on dentin slices” value is given as 91 ± 11% and the “Relative number (%) of Pit” value is recorded as 97 ± 13%. The “Relative value (%) of ALP” value in series [2] is on record as 103 ± 22%. Moreover, the “Relative value (%) of ALP” value in series [3] was 84 ± 14%. Also, the “Relative ALP activity” value in series [4] was 0.8 ± 0.01.
